Experiments:
rat Mdr1a P-gp = details: IPEC-J2 rMdr1a monolayers
rat Mdr1a = test system: rat Mdr1a; set-up: method as in PMID 16779700; details: LLC-PK1 cells transfected with rat Mdr1a; cited from earlier work
P-gp (human MDR1) = target: T1, P-gp (human MDR1) (Homo sapiens, UniProt P08183); test: Bidirectional transport across IPEC-J2 MDR1 cell monolayers; type: in vitro ADME; details: for Papp A→B at 120 min / Papp B→A at 120 min: pH 7.4, Figure 5, mean ± SEM; for Papp A→B at 120 min: read-out: apparent permeability A–B; for Papp B→A at 120 min: read-out: apparent permeability B–A; for efflux ratio at 120 min: pH 7.4, Figure 5 comparison series
T1 construct: expressed in transfected cells; host or cells: IPEC-J2 (porcine intestinal epithelial cells), previously established IPEC-J2 MDR1 line
T1 sequence (P08183 whole entry): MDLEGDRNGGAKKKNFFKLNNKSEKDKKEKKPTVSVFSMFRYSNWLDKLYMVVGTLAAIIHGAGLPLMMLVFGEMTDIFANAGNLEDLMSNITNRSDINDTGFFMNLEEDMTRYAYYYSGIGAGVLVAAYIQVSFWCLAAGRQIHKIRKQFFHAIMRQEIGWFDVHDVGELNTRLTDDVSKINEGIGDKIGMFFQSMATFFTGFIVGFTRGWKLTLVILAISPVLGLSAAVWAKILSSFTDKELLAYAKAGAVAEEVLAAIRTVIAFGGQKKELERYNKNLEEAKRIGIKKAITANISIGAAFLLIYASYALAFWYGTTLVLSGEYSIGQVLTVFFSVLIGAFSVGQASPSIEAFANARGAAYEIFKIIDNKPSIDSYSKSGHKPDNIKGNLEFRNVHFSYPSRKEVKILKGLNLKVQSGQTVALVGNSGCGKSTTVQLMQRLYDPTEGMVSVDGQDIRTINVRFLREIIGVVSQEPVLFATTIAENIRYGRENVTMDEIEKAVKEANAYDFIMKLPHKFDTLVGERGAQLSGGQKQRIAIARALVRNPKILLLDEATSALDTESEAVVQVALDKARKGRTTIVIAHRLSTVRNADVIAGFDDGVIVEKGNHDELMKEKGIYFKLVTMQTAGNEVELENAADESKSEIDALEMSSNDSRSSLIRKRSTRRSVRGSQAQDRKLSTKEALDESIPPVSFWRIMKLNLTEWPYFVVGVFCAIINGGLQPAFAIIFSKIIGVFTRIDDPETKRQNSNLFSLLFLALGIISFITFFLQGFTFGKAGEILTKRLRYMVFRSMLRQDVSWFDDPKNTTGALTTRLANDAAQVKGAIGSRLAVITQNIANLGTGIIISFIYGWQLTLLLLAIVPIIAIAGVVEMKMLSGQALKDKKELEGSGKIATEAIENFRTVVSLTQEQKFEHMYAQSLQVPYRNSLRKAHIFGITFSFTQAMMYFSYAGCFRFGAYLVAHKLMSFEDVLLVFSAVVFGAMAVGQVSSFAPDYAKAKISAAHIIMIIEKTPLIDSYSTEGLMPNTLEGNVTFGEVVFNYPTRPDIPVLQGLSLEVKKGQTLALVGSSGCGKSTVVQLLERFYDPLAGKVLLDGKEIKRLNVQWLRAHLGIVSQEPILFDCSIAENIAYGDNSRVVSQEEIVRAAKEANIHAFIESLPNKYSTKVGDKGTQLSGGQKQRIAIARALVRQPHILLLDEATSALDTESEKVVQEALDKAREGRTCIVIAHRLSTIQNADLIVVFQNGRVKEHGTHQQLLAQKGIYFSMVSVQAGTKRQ
Description: (§1) The cell monolayers were washed and pre-incubated in transport buffer consisting of 10 mM HEPES, 0.05% BSA and 0.038% sodium bicarbonate in HBSS pH 7.4 for 15 min at 37 °C on a shaking table (Unimax 2010, Heidolph, Schwabach, Germany) with a rotation of 75–90 rpm. The buffer was removed, and the transport experiments were initiated by the addition of donor solution containing radio-labelled compound in transport buffer in a concentration of 0.5 or 1 μ Ci/mL to either the apical or the basolateral chamber. […] Receiver samples were collected after 15, 30, 45, 60, 90 and 120 min from the basolateral (100 µL) or the apical chamber (50 µL), respectively.
(§2) Based on data from transport experiments, the apparent permeability coefficients (Papp) were calculated using Equation (1):(1) Papp = J/C0 = Qt/C0At where J denotes the steady-state flux (nmol·cm^−2·min^−1), C0 is the initial concentration in the donor compartment, A is the cross-sectional area of the permeable inserts (1.13 cm^2) and Qt represents the accumulated amount of drug in the receiver compartment at time t in minutes (corrected for the dilution arising from replacement of the sampled volume with blank transport buffer).

human MDR1 = test system: human MDR1; set-up: method as in PMID 16779700; details: LLC-PK1 cells transfected with human MDR1; cited from earlier work
P-gp (rat Mdr1a) = test: in vitro; details: for efflux ratio at 120 min: pH 7.4, efflux ratio, Figure 5 comparison series
human P-gp [1] = target: T2, human P-gp (Homo sapiens, UniProt P08183); set-up: expressed in transfected cells; method as in PMID 17045309; details: cell monolayers overexpressing human P-gp; cited from earlier work
T2 sequence (P08183 whole entry): as above

mouse Mdr1a = test system: mouse Mdr1a; set-up: method as in PMID 17045309; details: mouse Mdr1a-transfected LLC-PK1 and MDCK monolayers; cited from earlier work
human P-gp [2] = target: T2, human P-gp; set-up: expressed in transfected cells; host or cells: IPEC-J2 (porcine intestinal epithelial cells), previously established IPEC-J2 MDR1 line; method as in PMID 27194478; details: MDCK II MDR1 cell monolayers; cited from earlier work
[3] = set-up: method as in PMID 27194478; details: murine / rodent animal models; cited from earlier work
[4] = Bidirectional transport across IPEC-J2 wild-type (WT) cell monolayers; type: in vitro ADME, porcine; details: pig, pH 7.4, mean ± SEM
Description: as §1, §2

IPEC-J2 mock cells [5] = test: Bidirectional transport across IPEC-J2 mock cell monolayers (empty pcDNA 3.1(+) vector); details: 0.4 µM zosuquidar, Supplemental Figure S2
human P-gp [6] = target: T2, human P-gp; details: IPEC-J2 MDR1 cells overexpressing human P-gp; cited from earlier work
IPEC-J2 mock cells [7] = test: Puromycin selection of IPEC-J2 mock cells; type: cell-based, porcine; details: 2 μg/mL puromycin
Description: (§3) The rat Mdr1a cDNA, codon-optimized for expression in Sus scrofa, was synthesized by Geneart (Regensburg, Germany) and inserted in the pcDNA3.1 (+) cloning vector under control of a cytomegalovirus (CMV) promoter (see Supplemental Figure S1) and purchased from Geneart (Regensburg, Germany). […] Cells were seeded on permeable Transwell® inserts (1.13 cm^2 surface area, 0.4 µm pore size) at a density of 4 × 10^4 cells/insert and cultured for 15–18 days (with culture medium change three times per week) prior to experimentation.

rMDR1a-transfected cells = test: Puromycin selection of rMdr1a-transfected IPEC-J2 cells; type: cell-based, porcine; details: 2 μg/mL puromycin
Description: as §3

[8] = test system: P-gp (rat Mdr1a and human MDR1); test: in vitro; details: human, pH 7.4, apparent permeability values (span over both directions), A–B and B–A, across both IPEC-J2 rMdr1a and IPEC-J2 MDR1 monolayers
[9] = pH 7.4, apparent permeability A–B, IPEC-J2 rMdr1a monolayers, Figure 5, mean ± SEM

SMILES: CC[C@]1(O)C[C@@H]2CN(CCc3c([nH]c4ccccc34)[C@@](C(=O)OC)(c3cc4c(cc3OC)N(C)[C@H]3[C@@](O)(C(=O)OC)[C@H](OC(C)=O)[C@]5(CC)C=CCN6CC[C@]43[C@@H]65)C2)C1 [vinblastine]
- efflux ratio (rat Mdr1a P-gp; Figure 5 comparison series): 13
- efflux ratio (rat Mdr1a): 18.4
- Papp A→B at 120 min (P-gp (human MDR1)): 1.5 ± 0.2 ×10⁻⁶ cm/s
- Papp B→A at 120 min (P-gp (human MDR1)): 19 ± 6 ×10⁻⁶ cm/s
- efflux ratio at 120 min (P-gp (human MDR1)): 12.4
- efflux ratio (human MDR1): 12.5
- Papp B→A at 120 min (P-gp (rat Mdr1a); pH 7.4): 20 ± 5 ×10⁻⁶ cm/s
- Papp A→B at 120 min (P-gp (rat Mdr1a); [9]): 1.6 ± 0.2 ×10⁻⁶ cm/s
- efflux ratio at 120 min (P-gp (rat Mdr1a); IPEC-J2 rMdr1a monolayers): 12.8

SMILES: O=C1NC(=O)C(c2ccccc2)(c2ccccc2)N1 [phenytoin]
- polarized transport (human P-gp [1]): no polarized transport could be observed
- polarized transport (mouse Mdr1a): showed polarized transport

SMILES: CN1CCN(CCCN2c3ccccc3Sc3ccc(C(F)(F)F)cc32)CC1 [trifluoperazine]
- efflux ratio (ER) (human P-gp [2]): > 3
- Kp,uu (unbound drug concentration in CNS relative to plasma) [3]: > 2

SMILES: Cc1cc2c(s1)Nc1ccccc1N=C2N1CCN(C)CC1 [olanzapine]
- Papp A→B at 120 min (P-gp (human MDR1)): 23 ± 4 ×10⁻⁶ cm/s
- Papp B→A at 120 min (P-gp (human MDR1)): 40 ± 3 ×10⁻⁶ cm/s
- Papp A→B at 120 min (P-gp (rat Mdr1a); pH 7.4): 24 ± 3 ×10⁻⁶ cm/s
- Papp B→A at 120 min (P-gp (rat Mdr1a); pH 7.4): 44 ± 3 ×10⁻⁶ cm/s

SMILES: C[C@H]1O[C@@H](O[C@H]2[C@@H](O)C[C@H](O[C@H]3[C@@H](O)C[C@H](O[C@H]4CC[C@@]5(C)[C@H](CC[C@@H]6[C@@H]5C[C@@H](O)[C@]5(C)[C@@H](C7=CC(=O)OC7)CC[C@]65O)C4)O[C@@H]3C)O[C@@H]2C)C[C@H](O)[C@@H]1O [digoxin]
- Papp A→B at 120 min (P-gp (human MDR1)): 0.28 ± 0.03 ×10⁻⁶ cm/s
- Papp A→B at 120 min ([4]; read-out: PA-B (apparent permeability, apical to basolateral)): 0.05 ± 0.05 ×10⁻⁶ cm/s
- Papp B→A at 120 min ([4]; read-out: PB-A (apparent permeability, basolateral to apical)): 0.13 ± 0.17 ×10⁻⁶ cm/s
- Papp at 120 min (P-gp (rat Mdr1a); pH 7.4, PB-A (apparent permeability in the efflux direction), late passages (14–16)): 16 ± 1 ×10⁻⁶ cm/s
- Papp A→B at 120 min (P-gp (rat Mdr1a); [9]): 0.35 ± 0.03 ×10⁻⁶ cm/s
- Papp A→B at 120 min (P-gp (rat Mdr1a); pH 7.4, permeability in the A–B direction, early passages (5–7)): 0.37 ± 0.1 ×10⁻⁶ cm/s
- Papp A→B at 120 min (P-gp (rat Mdr1a); pH 7.4, permeability in the A–B direction, late passages (14–16)): 0.68 ± 0.62 ×10⁻⁶ cm/s

SMILES: O[C@@H](COc1cccc2ncccc12)CN1CCN([C@@H]2c3ccccc3[C@@H]3[C@H](c4ccccc42)C3(F)F)CC1 [zosuquidar]
- effect on digoxin transport (IPEC-J2 mock cells [5]): did not affect digoxin transport
- effect on efflux transport of digoxin (rat Mdr1a P-gp; 0.4 µM zosuquidar): completely blocked

SMILES: CN(C)CCCC1(c2ccc(F)cc2)OCc2cc(C#N)ccc21 (stereo not shown) [citalopram]
- P-gp substrate identification (human P-gp [6]): P-gp substrates

SMILES: OCCN1CCN(CCCN2c3ccccc3Sc3ccc(Cl)cc32)CC1 [perphenazine]
- efflux ratio (ER) (human P-gp [2]): > 3
- Kp,uu (unbound drug concentration in CNS relative to plasma) [3]: > 2

SMILES: CC[C@@H](C(N)=O)N1CCCC1=O [levetiracetam]
- polarized transport (human P-gp [1]): no polarized transport could be observed
- polarized transport (mouse Mdr1a): showed polarized transport

SMILES: COc1ccc(C[C@H](N)C(=O)N[C@H]2[C@@H](O)[C@H](n3cnc4c(N(C)C)ncnc43)O[C@@H]2CO)cc1 [puromycin]
- cell survival under selection (IPEC-J2 mock cells [7]): died within three days
- cell survival under selection (rMDR1a-transfected cells): survived the treatment

SMILES: CNCC[C@@H](Oc1ccccc1C)c1ccccc1 [atomoxetine]
- efflux ratio (ER) (human P-gp [2]): > 3
- Kp,uu (unbound drug concentration in CNS relative to plasma) [3]: > 2

SMILES: OC[C@@H](O)[C@@H](O)[C@H](O)[C@H](O)CO [mannitol]
- Papp A→B at 120 min (P-gp (human MDR1)): 0.25 ± 0.02 ×10⁻⁶ cm/s
- Papp B→A at 120 min (P-gp (human MDR1)): 0.37 ± 0.04 ×10⁻⁶ cm/s
- efflux ratio at 120 min (P-gp (human MDR1)): 1.4
- Papp at 120 min [8]: 0.25 to 0.44 ×10⁻⁶ cm/s
- Papp B→A at 120 min (P-gp (rat Mdr1a); pH 7.4): 0.44 ± 0.11 ×10⁻⁶ cm/s
- Papp A→B at 120 min (P-gp (rat Mdr1a); [9]): 0.33 ± 0.12 ×10⁻⁶ cm/s
- efflux ratio at 120 min (P-gp (rat Mdr1a); IPEC-J2 rMdr1a monolayers): 1.5
- Papp at 120 min (P-gp (rat Mdr1a); pH 7.4, paracellular permeability, IPEC-J2 rMdr1a monolayers, conclusion summary): ~0.3 ×10⁻⁶ cm/s

Reference: PMC7408396, “IPEC-J2 rMdr1a, a New Cell Line with Functional Expression of Rat P-glycoprotein Encoded by Rat Mdr1a for Drug Screening Purposes” (Pharmaceutics, 2020)
